In patent US7531482B2, “Thieno-pyrimidine compounds having fungicidal activity” (Dow AgroSciences LLC, priority 2005, dated 2009):

Experiments:
Type in all cases: in vivo
Colletotricum lagenarium = assay: Cucumber Anthracnose (COLLLA) whole-plant disease control test; details: Cucumis sativus, foliar; 200 ppm applied to foliage of cucumber; inoculated one day after treatment; read-out: COLLLA disease control
Phytophthora infestans = assay: whole plant or invertebrate; details: Phytophthora infestans, in Solanum lycopersicum, foliar, read-out: PHYTIN disease control, 200 ppm applied to foliage of tomato; inoculated one day after treatment
[1] = system: Mycosphaerella graminicola=Septoria tritici; assay: Speckled Leaf Blotch of Wheat (SEPTTR) whole-plant disease control test; details: Mycosphaerella, foliar, 75 ppm applied to foliage of wheat; read-out: SEPTTR disease control
Erysiphe cichoracaerum = assay: Cucumber Powdery Mildew (ERYSCI) whole-plant disease control test; details: Erysiphe, foliar; 200 ppm applied to foliage of cucumber; inoculated one day after treatment; read-out: ERYSCI disease control
Leptosphaeria nodorum = assay: Glume Blotch of Wheat (LEPTNO) whole-plant disease control test; details: Parastagonospora nodorum, foliar; for pest or weed control at 200 ppm: 200 ppm applied to foliage of wheat, inoculated one day after treatment, read-out: LEPTNO disease control; for pest or weed control at 75 ppm: 75 ppm (footnote b), wheat foliage
[2] = system: Magnaporthe grisea=Pyricularia oryzae; assay: whole plant or invertebrate; details: Pyricularia oryzae, foliar; for pest or weed control at 200 ppm: read-out: PYRIOR disease control, 200 ppm applied to foliage of rice, inoculated one day after treatment; for pest or weed control at 8.3 ppm: read-out: PYRIOR disease control, 8.3 ppm (footnote c), rice foliage
[3] = system: Puccinia recondita tritici; assay: Leaf Rust of Wheat (PUCCRT) whole-plant disease control test; details: Puccinia recondita, foliar; for pest or weed control at 200 ppm: 200 ppm applied to foliage of wheat, inoculated one day after treatment, read-out: PUCCRT disease control; for pest or weed control at 8.3 ppm: 8.3 ppm (footnote c), wheat foliage

SMILES | pest or weed control at 200 ppm (Colletotricum lagenarium) [%] | pest or weed control at 200 ppm (Phytophthora infestans) [%] | pest or weed control at 75 ppm [1] [%] | pest or weed control at 200 ppm (Erysiphe cichoracaerum) [%] | pest or weed control at 200 ppm (Leptosphaeria nodorum) [%] | pest or weed control at 200 ppm [2] [%] | pest or weed control at 200 ppm [3] [%] | pest or weed control at 75 ppm (Leptosphaeria nodorum) [%] | pest or weed control at 8.3 ppm [2] [%] | pest or weed control at 8.3 ppm [3] [%]
FC(F)(F)c1ccc(Oc2ccc(CCNc3ncnc4scc(Cl)c34)cc2)nc1 [Compound 1, 5-(Chlorothieno[2,3-d]pyrimidin-4-yl)-{2-[4-(5-trifluoromethylpyridin-2-yloxy)phenyl]ethyl}amine] | 0 to 49 | 0 to 49 | 50 to 79 | 50 to 79 | 50 to 79 | 80 to 100 | 80 to 100 |  |  | 
CS(=O)(=O)c1ccc(Oc2ccc(CCNc3ncnc4scc(Cl)c34)cc2)nc1 [Compound 2] | 0 to 49 | 0 to 49 |  | 0 to 49 | 0 to 49 | 50 to 79 | 80 to 100 |  |  | 
O=[N+]([O-])c1ccc(Oc2ccc(CCNc3ncnc4scc(Cl)c34)cc2)nc1 [Compound 3] | 50 to 79 | 80 to 100 | 50 to 79 | 50 to 79 | 50 to 79 | 80 to 100 | 80 to 100 |  |  | 
N#Cc1ccc(Oc2ccc(CCNc3ncnc4scc(Cl)c34)cc2)nc1 [Compound 4] | 80 to 100 | 80 to 100 | 50 to 79 | 80 to 100 | 80 to 100 | 80 to 100 | 80 to 100 |  |  | 
CC(C)(C)OC(=O)c1ccc(Oc2ccc(CCNc3ncnc4scc(Cl)c34)cc2)cc1 [Compound 6] | 50 to 79 | 50 to 79 | 50 to 79 | 80 to 100 | 0 to 49 | 80 to 100 | 80 to 100 |  |  | 
Clc1csc2ncnc(NCCc3ccc(Oc4ccc(Br)cn4)cc3)c12 [Compound 7, {2-[4-(5-Bromopyridin-2-yloxy)phenyl]ethyl}-(5-chlorothieno[2,3-d]pyrimidin-4-yl}amine] | 50 to 79 | 0 to 49 | 50 to 79 | 80 to 100 | 80 to 100 | 50 to 79 | 80 to 100 |  |  | 
COC(=O)c1ccc(Oc2ccc(CCNc3ncnc4scc(Cl)c34)cc2)nc1 [Compound 20] | 0 to 49 | 0 to 49 |  | 0 to 49 | 0 to 49 | 0 to 49 | 80 to 100 |  |  | 
NC(=O)c1cccc(Oc2ccc(CCNc3ncnc4scc(Cl)c34)cc2)n1 [Compound 82] |  |  | 50 to 79 |  |  |  |  | 50 to 79 | 80 to 100 | 80 to 100
O=[N+]([O-])c1cccc(Oc2ccc(CCNc3ncnc4scc(Cl)c34)cc2)n1 [Compound 83] |  |  | 50 to 79 |  |  |  |  | 50 to 79 | 80 to 100 | 80 to 100
COc1cccc(Oc2ccc(CCNc3ncnc4scc(Cl)c34)cc2)n1 [Compound 84, (5-Chlorothieno[2,3-d]pyrimidin-4-yl)-{2-[4-(6-methoxypyridin-2-yloxy)phenyl]ethyl}amine] |  |  | 50 to 79 |  |  |  |  | 50 to 79 | 80 to 100 | 80 to 100
O=c1ncn(-c2cccc(Oc3ccc(CCNc4ncnc5scc(Cl)c45)cc3)n2)[nH]1 [Compound 90] |  |  | 50 to 79 |  |  |  |  | 0 to 49 | 50 to 79 | 0 to 49
C[S+]([O-])c1cc(Cl)nc(Oc2ccc(CCNc3ncnc4scc(Cl)c34)cc2)c1 (stereo not drawn) [Compound 92] |  |  | 50 to 79 |  |  |  |  | 0 to 49 | 80 to 100 | 80 to 100
CSc1cc(C(F)(F)F)cc(Oc2ccc(CCNc3ncnc4scc(Cl)c34)cc2)n1 [Compound 93] |  |  | 50 to 79 |  |  |  |  | 0 to 49 | 80 to 100 | 80 to 100
CC(C)(C)c1noc(-c2cccc(Oc3ccc(CCNc4ncnc5scc(Cl)c45)cc3)n2)n1 [Compound 96] |  |  | 50 to 79 |  |  |  |  | 50 to 79 | 50 to 79 | 80 to 100
O=C(O)c1ccc(C(F)(F)F)nc1Oc1ccc(CCNc2ncnc3scc(Cl)c23)cc1 [Compound 98] |  |  | 50 to 79 |  |  |  |  | 0 to 49 | 0 to 49 | 0 to 49
CC(=O)c1cccc(Oc2ccc(CCNc3ncnc4scc(Cl)c34)cc2)n1 [Compound 100] |  |  |  |  |  |  |  | 0 to 49 | 80 to 100 | 80 to 100
CC(C)(C)C(=O)NNc1cccc(Oc2ccc(CCNc3ncnc4scc(Cl)c34)cc2)n1 [Compound 102, 2,2-Dimethylpropionic acid N′-(6-{4-[2-(5-chlorothieno[2,3-d]pyrimidin-4-ylamino)ethyl]phenoxy}pyridine-2-yl)-hydrazide] |  |  | 0 to 49 |  |  |  |  | 0 to 49 | 50 to 79 | 0 to 49

SMILES | pest or weed control at 200 ppm (Colletotricum lagenarium) [%] | pest or weed control at 200 ppm (Phytophthora infestans) [%] | pest or weed control at 75 ppm [1] [%] | pest or weed control at 200 ppm (Erysiphe cichoracaerum) [%] | pest or weed control at 200 ppm (Leptosphaeria nodorum) [%] | pest or weed control at 200 ppm [2] [%] | pest or weed control at 200 ppm [3] [%] | pest or weed control at 75 ppm (Leptosphaeria nodorum) [%] | pest or weed control at 8.3 ppm [2] [%] | pest or weed control at 8.3 ppm [3] [%]
CC(C)(C)c1nnc(Oc2ccc(CCNc3ncnc4scc(Cl)c34)cc2)s1 [Compound 109] |  |  | 50 to 79 |  |  |  |  | 50 to 79 | 80 to 100 | 80 to 100
FC(F)(F)COc1cccc(Oc2ccc(CCNc3ncnc4scc(Cl)c34)cc2)n1 [Compound 111] |  |  | 50 to 79 |  |  |  |  | 0 to 49 | 80 to 100 | 50 to 79
COc1cnc(C(F)(F)F)c(F)c1Oc1ccc(CCNc2ncnc3scc(Cl)c23)cc1 [Compound 113] |  |  | 0 to 49 |  |  |  |  | 0 to 49 | 80 to 100 | 80 to 100
Clc1csc2ncnc(NCCc3ccc(Oc4snnc4-c4ccccc4)cc3)c12 [Compound 115] |  |  | 50 to 79 |  |  |  |  | 50 to 79 | 50 to 79 | 80 to 100
COc1ccc([N+](=O)[O-])c(Oc2ccc(CCNc3ncnc4scc(Cl)c34)cc2)n1 [Compound 116] |  |  | 0 to 49 |  |  |  |  | 0 to 49 | 0 to 49 | 80 to 100
CC(C)Cc1nnc(Oc2ccc(CCNc3ncnc4scc(Cl)c34)cc2)s1 [Compound 117] |  |  | 0 to 49 |  |  |  |  | 0 to 49 | 80 to 100 | 80 to 100
Clc1csc2ncnc(NCCc3ccc(Oc4nnc(-c5ccncc5)s4)cc3)c12 [Compound 118] |  |  | 0 to 49 |  |  |  |  | 0 to 49 | 80 to 100 | 80 to 100
Clc1csc2ncnc(NCCc3ccc(Oc4nnc(COc5ccccc5)s4)cc3)c12 [Compound 119] |  |  | 0 to 49 |  |  |  |  | 0 to 49 | 80 to 100 | 80 to 100
O=Cc1sc(Oc2ccc(CCNc3ncnc4scc(Cl)c34)cc2)nc1Cl [Compound 121] |  |  | 0 to 49 |  |  |  |  | 0 to 49 | 80 to 100 | 80 to 100
FC(F)(F)c1cnccc1Oc1ccc(CCNc2ncnc3scc(Cl)c23)cc1 [Compound 126] |  |  | 80 to 100 |  |  |  |  | 50 to 79 |  | 80 to 100
FC(F)(F)COc1ccnc(Oc2ccc(CCNc3ncnc4scc(Cl)c34)cc2)c1 [Compound 127] |  |  | 50 to 79 |  |  |  |  | 80 to 100 |  | 80 to 100
Nc1c(F)c(F)nc(Oc2ccc(CCNc3ncnc4scc(Cl)c34)cc2)c1F [Compound 128] |  |  |  |  |  |  |  |  | 80 to 100 | 80 to 100
Fc1cc(F)c(Oc2ccc(CCNc3ncnc4scc(Cl)c34)cc2)nc1F [Compound 129] |  |  | 80 to 100 |  |  | 80 to 100 | 80 to 100 | 50 to 79 |  | 
N#Cc1c(Cl)cncc1Oc1cccc(CCNc2ncnc3scc(Cl)c23)c1 [Compound 130] | 0 to 49 | 80 to 100 | 0 to 49 | 0 to 49 |  | 80 to 100 | 80 to 100 |  |  | 
Fc1cnc(C(F)(F)F)c(F)c1Oc1cccc(CCNc2ncnc3scc(Cl)c23)c1 [Compound 131] |  |  |  |  |  |  |  |  |  | 50 to 79
Fc1ccc(F)c(Oc2ccc(CCNc3ncnc4scc(Cl)c34)cc2)n1 [Compound 132] |  |  |  |  |  |  |  |  | 80 to 100 | 80 to 100
N#Cc1ccc(C(F)(F)F)nc1Oc1ccc(CCNc2ncnc3scc(Cl)c23)cc1 [Compound 133] |  |  |  |  |  |  |  |  |  | 0 to 49
